Here are results for eleven molecules from patent US11168073B2, “3,3-difluoroallylamines or salts thereof and pharmaceutical compositions comprising the same” (YUHAN CORPORATION, priority 2018, dated 2021).

Common to all, as to type: biochemical
In test [1] the target is T1, recombinant human VAP-1 (Homo sapiens, UniProt Q16853).
T1 construct: purchased R&D systems
T1 sequence (Q16853 1-763): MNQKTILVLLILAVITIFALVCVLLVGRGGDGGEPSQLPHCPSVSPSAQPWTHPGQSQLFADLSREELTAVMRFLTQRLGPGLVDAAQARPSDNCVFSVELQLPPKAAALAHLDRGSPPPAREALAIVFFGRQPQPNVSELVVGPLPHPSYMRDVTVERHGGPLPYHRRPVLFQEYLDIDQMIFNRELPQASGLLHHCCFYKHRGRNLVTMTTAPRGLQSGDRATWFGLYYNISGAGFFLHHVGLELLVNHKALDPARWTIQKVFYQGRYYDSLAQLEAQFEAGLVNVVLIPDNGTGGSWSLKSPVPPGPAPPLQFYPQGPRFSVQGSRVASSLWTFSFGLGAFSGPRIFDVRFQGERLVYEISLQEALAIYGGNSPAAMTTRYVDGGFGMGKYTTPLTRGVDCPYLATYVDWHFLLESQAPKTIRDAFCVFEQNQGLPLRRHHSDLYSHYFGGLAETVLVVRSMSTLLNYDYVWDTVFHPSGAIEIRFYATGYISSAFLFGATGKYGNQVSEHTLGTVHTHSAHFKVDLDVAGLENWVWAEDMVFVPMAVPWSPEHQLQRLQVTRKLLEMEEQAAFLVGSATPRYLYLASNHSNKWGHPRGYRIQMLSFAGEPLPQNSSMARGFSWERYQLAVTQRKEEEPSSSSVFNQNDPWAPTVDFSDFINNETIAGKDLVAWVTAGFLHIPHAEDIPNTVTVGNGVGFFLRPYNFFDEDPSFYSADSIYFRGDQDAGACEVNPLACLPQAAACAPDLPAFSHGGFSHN
As to the kind of experiment: Activity evaluation on recombinant human VAP-1 (Amplex Red/HRP-coupled hydrogen peroxide assay, benzylamine substrate). The note with it: read-out: Inhibitory Activity (IC50, nM) human VAP-1. Put shortly:
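Hydrogen peroxide from benzylamine (1 mM) oxidation by human recombinant VAP-1 detected via HRP-coupled Amplex Red (200 uM) fluorescence, kinetic over 1–2 h. Enzyme and compound preincubated 30 min at 37 °C, pH 7.4 phosphate; 8-point dose response, signal-rate decrease versus DMSO control fitted to four-parameter logistic for IC50.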

In test [2] the target is T2, recombinant human MAO-A (monoamine oxidase-A) (Homo sapiens, UniProt P21397).
T2 construct: purchased Sigma-Aldrich
T2 sequence (P21397 1-527): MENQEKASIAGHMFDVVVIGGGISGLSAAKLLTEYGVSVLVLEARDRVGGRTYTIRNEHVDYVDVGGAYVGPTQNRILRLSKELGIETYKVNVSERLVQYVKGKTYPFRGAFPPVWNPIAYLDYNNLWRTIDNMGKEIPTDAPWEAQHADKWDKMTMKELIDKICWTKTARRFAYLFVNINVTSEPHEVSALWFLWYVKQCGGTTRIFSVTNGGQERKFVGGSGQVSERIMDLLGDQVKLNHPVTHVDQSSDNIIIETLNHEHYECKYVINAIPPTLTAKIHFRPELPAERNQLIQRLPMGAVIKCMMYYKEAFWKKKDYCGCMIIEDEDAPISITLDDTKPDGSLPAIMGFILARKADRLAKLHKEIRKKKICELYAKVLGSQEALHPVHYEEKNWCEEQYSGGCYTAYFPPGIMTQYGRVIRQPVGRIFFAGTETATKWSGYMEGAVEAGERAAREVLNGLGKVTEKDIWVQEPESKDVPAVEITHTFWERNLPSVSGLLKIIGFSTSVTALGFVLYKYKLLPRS
As to the kind of experiment: Activity evaluation on recombinant human MAO-A (Amplex Red/HRP-coupled assay, 0.5 mM tyramine substrate). The note with it: read-out: Inhibitory Activity (IC50, nM) MAO-A. Put shortly:
(§1)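 8-pt 1:3 dilution series, final DMSO <1%; 30 min 37 °C preincubation w/ enzyme, 50 mM Na phosphate pH 7.4; + 200 uM Amplex Red, 1 U/mL HRP, substrate (MAO-A tyramine 0.5 mM; MAO-B benzylamine 1 mM; DAO putrescine 1 mM); fluor. rate 544/590 nm, 1-2 h; 4-param IC50.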

The target of test [3] is T3, recombinant human MAO-B (monoamine oxidase-B) (Homo sapiens, UniProt P27338).
T3 construct: purchased Sigma-Aldrich
T3 sequence (P27338 1-520): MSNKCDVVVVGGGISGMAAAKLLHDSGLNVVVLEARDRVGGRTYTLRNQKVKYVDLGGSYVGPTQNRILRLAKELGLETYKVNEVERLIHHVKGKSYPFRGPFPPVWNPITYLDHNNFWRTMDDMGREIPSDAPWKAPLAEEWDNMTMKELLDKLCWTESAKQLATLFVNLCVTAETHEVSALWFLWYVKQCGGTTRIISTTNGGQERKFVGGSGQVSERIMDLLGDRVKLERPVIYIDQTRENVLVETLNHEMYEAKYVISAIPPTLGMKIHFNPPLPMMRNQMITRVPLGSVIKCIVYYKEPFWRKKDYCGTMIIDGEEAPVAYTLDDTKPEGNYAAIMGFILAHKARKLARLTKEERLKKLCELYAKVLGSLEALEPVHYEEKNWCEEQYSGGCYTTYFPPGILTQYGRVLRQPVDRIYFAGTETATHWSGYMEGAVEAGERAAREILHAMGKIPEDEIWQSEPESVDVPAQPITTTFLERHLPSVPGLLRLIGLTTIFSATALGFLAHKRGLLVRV
Nature of the test: Activity evaluation on recombinant human MAO-B (Amplex Red/HRP-coupled assay, 1 mM benzylamine substrate). The conditions noted are these: read-out: Inhibitory Activity (IC50, nM) MAO-B. The gist of the method: as §1

Test [4] addresses T4, recombinant human DAO (diamine oxidase) (Homo sapiens, UniProt P19801).
T4 construct: purchased R&D systems
T4 sequence (P19801 20-751): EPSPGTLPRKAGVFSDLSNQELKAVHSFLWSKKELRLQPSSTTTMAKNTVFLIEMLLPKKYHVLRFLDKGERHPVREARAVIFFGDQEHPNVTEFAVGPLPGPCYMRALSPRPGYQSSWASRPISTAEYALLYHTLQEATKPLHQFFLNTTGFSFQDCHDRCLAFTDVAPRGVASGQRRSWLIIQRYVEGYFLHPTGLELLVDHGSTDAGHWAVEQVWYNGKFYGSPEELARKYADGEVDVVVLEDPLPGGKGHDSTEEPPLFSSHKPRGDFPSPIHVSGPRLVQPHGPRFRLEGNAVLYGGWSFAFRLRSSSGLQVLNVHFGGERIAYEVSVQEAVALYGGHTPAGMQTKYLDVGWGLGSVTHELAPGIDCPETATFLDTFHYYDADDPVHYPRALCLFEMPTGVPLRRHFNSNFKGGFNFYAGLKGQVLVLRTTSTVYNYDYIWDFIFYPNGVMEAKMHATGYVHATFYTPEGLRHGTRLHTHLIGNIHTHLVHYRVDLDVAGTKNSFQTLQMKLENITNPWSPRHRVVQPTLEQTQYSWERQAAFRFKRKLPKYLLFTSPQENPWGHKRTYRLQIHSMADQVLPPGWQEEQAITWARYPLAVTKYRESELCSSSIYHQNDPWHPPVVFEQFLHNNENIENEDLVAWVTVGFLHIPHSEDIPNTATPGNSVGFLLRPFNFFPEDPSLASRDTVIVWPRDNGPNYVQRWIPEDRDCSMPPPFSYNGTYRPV
As to the kind of experiment: Activity evaluation on recombinant human DAO (Amplex Red/HRP-coupled assay, 1 mM putrescine substrate). The note with it: read-out: Inhibitory Activity (IC50, nM) DAO. The gist of the method:
as §1

Where [5] appears, read: recombinant human VAP-1, 30 min preincubation at 37° C., 1 mM benzylamine.
Setting [6] is: recombinant human VAP-1, benzylamine substrate.

Where a name gives a salt, the structure may show the parent alone. Read-outs that look alike come from different tables or passages of the source.

`Cc1cc(-n2cnn(CC(CN)=C(F)F)c2=O)cnc1-c1ccc2c(c1)CCC(=O)N2C` [Example 81, 6-[5-[1-[2-(aminomethyl)-3,3-difluoro-allyl]-5-oxo-1,2,4-triazol-4-yl]-3-methyl-2-pyridyl]-1-methyl-3,4-dihydroquinolin-2-one Trifluoroacetate]: the IC50 (as a rule, the concentration needed to halve the response being measured) in test [1] (setting [5]) is 0.4 nM; in test [2] (0.5 mM tyramine), > 100000 nM; in test [3] (1 mM benzylamine) it was 3500 nM; in test [4] (1 mM putrescine) it was 27 nM.
Consider `CCn1cc(-c2cccc(Cn3cnn(CC(CN)=C(F)F)c3=O)c2)cn1` [Example 271, 2-[2-(aminomethyl)-3,3-difluoro-allyl]-4-[[3-(1-ethylpyrazol-4-yl)phenyl]methyl]-1,2,4-triazol-3-one Trifluoroacetate], for which the IC50 in test [1] (setting [6]) was 2.2 nM; in test [2] (0.5 mM tyramine substrate), > 100000 nM; in test [3] (1 mM benzylamine substrate), 1590 nM; in test [4] (1 mM putrescine substrate) it was > 100000 nM.
Turning to `NCC(Cn1ncn(Cc2ccc(-c3ccc(N4CCNCC4)nc3)s2)c1=O)=C(F)F` [Example 114, 2-[2-(aminomethyl)-3,3-difluoro-allyl]-4-[[5-(6-piperazin-1-yl-3-pyridyl)-2-thienyl]methyl]-1,2,4-triazol-3-one Ditrifluoroacetate], the half-inhibitory concentration (IC50) was 4.9 nM in test [1] (setting [5]), > 100000 nM in test [2] (0.5 mM tyramine), > 100000 nM in test [3] (1 mM benzylamine) and 970 nM in test [4] (1 mM putrescine).
As to `NCC(Cn1ncn(Cc2ccc(C#Cc3ccc(N4CCOCC4)nc3)s2)c1=O)=C(F)F` [Example 163, 2-[2-(aminomethyl)-3,3-difluoro-allyl]-4-[[5-[2-(6-morpholino-3-pyridyl)ethynyl]-2-thienyl]methyl]-1,2,4-triazol-3-one Trifluoroacetate], the IC50 in test [1] (setting [5]) is 0.4 nM; in test [2] (0.5 mM tyramine), > 100000 nM; in test [3] (1 mM benzylamine) it was 31000 nM; in test [4] (1 mM putrescine), 8400 nM.
For `CC(C)n1cc(-c2ccc(Cn3cnn(CC(CN)=C(F)F)c3=O)s2)ccc1=O` [Example 123, 5-[5-[[1-[2-(aminomethyl)-3,3-difluoro-allyl]-5-oxo-1,2,4-triazol-4-yl]methyl]-2-thienyl]-1-isopropyl-pyridin-2-one Trifluoroacetate], in that order: 0.9 nM, > 100000 nM, 56000 nM and 59000 nM.
In the case of `NCC(Cn1ncn(Cc2cc(-c3ccc4c(c3)OCO4)cs2)c1=O)=C(F)F` [Example 150, 2-[2-(aminomethyl)-3,3-difluoro-allyl]-4-[[4-(1,3-benzodioxol-5-yl)-2-thienyl]methyl]-1,2,4-triazol-3-one Trifluoroacetate], the IC50 in test [1] (setting [5]) was 2.9 nM; in test [2] (0.5 mM tyramine), > 100000 nM; in test [3] (1 mM benzylamine), 2800 nM; in test [4] (1 mM putrescine), > 10000 nM.
For `Cc1cc(-c2ccc3sc(Cn4cnn(CC(CN)=C(F)F)c4=O)cc3c2)cc2c1NC(=O)CC2` [Example 210, 6-[2-[[1-[2-(aminomethyl)-3,3-difluoro-allyl]-5-oxo-1,2,4-triazol-4-yl]methyl]benzothiophen-5-yl]-8-methyl-3,4-dihydro-1H-quinolin-2-one Trifluoroacetate], the IC50 in test [1] (setting [6]) is 1.5 nM; in test [2] (0.5 mM tyramine substrate), > 100000 nM; in test [3] (1 mM benzylamine substrate), > 100000 nM; in test [4] (1 mM putrescine substrate), 1230 nM.
In the case of `NCC(Cn1ncn(Cc2ccc(-c3ccc4cn[nH]c4c3)s2)c1=O)=C(F)F` [Example 127, 2-[2-(aminomethyl)-3,3-difluoro-allyl]-4-[[5-(1H-indazol-6-yl)-2-thienyl]methyl]-1,2,4-triazol-3-one Trifluoroacetate], the IC50 in test [1] (setting [5]) is 0.6 nM; in test [2] (0.5 mM tyramine), > 100000 nM; in test [3] (1 mM benzylamine), 1070 nM; in test [4] (1 mM putrescine), > 100000 nM.
`CS(=O)(=O)c1ccc(-c2ccc3cc(Cn4cnn(CC(CN)=C(F)F)c4=O)sc3c2)cc1` [Example 197, 2-[2-(aminomethyl)-3,3-difluoro-allyl]-4-[[6-(4-methylsulfonylphenyl)benzothiophen-2-yl]methyl]-1,2,4-triazol-3-one trifluoroacetate]: the IC50 was 0.8 nM in test [1] (setting [6]), > 100000 nM in test [2] (0.5 mM tyramine substrate), 18000 nM in test [3] (1 mM benzylamine substrate) and 2400 nM in test [4] (1 mM putrescine substrate).
On to `CCn1cc(-c2ccc(Cn3cnn(CC(CN)=C(F)F)c3=O)s2)cn1` [Example 119, 2-[2-(aminomethyl)-3,3-difluoro-allyl]-4-[[5-(1-ethylpyrazol-4-yl)-2-thienyl]methyl]-1,2,4-triazol-3-one Trifluoroacetate], for which the IC50 in test [1] (setting [5]) is 0.5 nM; in test [2] (0.5 mM tyramine), > 100000 nM; in test [3] (1 mM benzylamine), 30000 nM; in test [4] (1 mM putrescine), > 10000 nM.
For `CCn1cc(-c2ccc(-n3cnn(CC(CN)=C(F)F)c3=O)cc2F)cn1` [Example 30, 2-[2-(aminomethyl)-3,3-difluoro-allyl]-4-[4-(1-ethylpyrazol-4-yl)-3-fluoro-phenyl]-1,2,4-triazol-3-one Trifluoroacetate], in that order: 0.6 nM, > 100000 nM, 300 nM and 890 nM.
